Assay results published in ChEMBL document CHEMBL1133160, “Molecular modeling of the aldose reductase-inhibitor complex based on the X-ray crystal structure and studies with single-site-directed mutants” (J Med Chem, 2000).

Columns and labels:
[1] = Inhibitory Activity ratio (IC50 ratio) calculated by Human recombinant aldose reductase wild type against Mutant Aldose reductase (W111A)
[2] = target: Aldo-keto reductase family 1 member B1 (Homo sapiens, UniProt P15121); experiment: Inhibitory Activity against Human recombinant Aldose Reductase (wild type)
[3] = Inhibitory Activity ratio (IC50 ratio) calculated by Human recombinant aldose reductase wild type against Mutant Aldose reductase (W111Y).
[4] = Inhibitory Activity ratio (IC50 ratio) calculated by Human recombinant aldose reductase wild type against Mutant Aldose reductase (W20Y)
[5] = Inhibitory Activity ratio (IC50 ratio) calculated by Human recombinant aldose reductase wild type against Mutant Aldose reductase (W20A).

Row | SMILES | Ratio [1] | IC50 [2] [nM] | Ratio [3] | Ratio [4] | Ratio [5]
1 | O=C1CC2(C(=O)N1)C(=O)N(Cc1nc3cc(C(F)(F)F)ccc3s1)C(=O)c1ccc(F)cc12 (stereo not given) | 19 | 144 | 2 | 0.1 | 1
2 | O=C1NC(=O)C2(N1)c1cc(F)ccc1-c1ccc(F)cc12 | 781 | 54.7 | 1960 | 48 | 9140
3 | O=C(O)CC1C(=O)N(Cc2ccc(Br)cc2F)C(=O)c2ccc(F)cc21 (stereo not given) | 120 | 227 | 193 | 21 | 311
4 | O=C(O)Cc1nn(Cc2ccc(Br)cc2F)c(=O)c2ccccc12 [PONALRESTAT] | 1770 | 66.5 | 58 | 47 | 1770
5 | CN1C(=O)c2ccc(F)cc2C2(CC(=O)NC2=O)C1=O (stereo not given) | 2730 | 73.2 | 773 | 3 | 1670
6 | O=C(O)Cn1c(=O)n(Cc2ccc(Br)cc2F)c(=O)c2ccc(Cl)cc21 [ZENARESTAT] | 786 | 42.4 | 12 | 2.5 | 448
7 | CN1C(=O)c2ccc(Cl)cc2C2(CC(=O)NC2=O)C1=O (stereo not given) | > 1280 | 78.2 | 324 | 1.5 | 1070
